# From patent US11559510B2, “Isoflavonoid composition with improved pharmacokinetics” (NOXOPHARM LIMITED, priority 2016, dated 2023)
# Assay: Extrapolation of rat rectal plasma levels to humans on a body surface area basis
# Details: extrapolated from rat rectal data
# Procedure: In this study, idronoxil was given to rats at a dose of 10 mg/kg body weight, yielding a plasma concentration of about 35 to 40 ng/mL up to 8 hours from a single rectal administration. This dosage equates (on a body surface area basis) to a dose in humans of about 2 mg/kg BW. Thus, a blood level range of 20-400 ng/mL could be achieved in humans with a dosage range of 1-20 mg/kg BW, and the preferred range of 80-160 ng/mL with a dosage range of 4-8 mg/kg BW.
smiles,measurement,setting,value
"Oc1ccc(C2=Cc3ccc(O)cc3OC2)cc1 [Idronoxil, 2H-1-Benzopyran-7-0,1,3-(4-hydroxyphenyl)]",blood level range that could be achieved in humans,dosage range of 1-20 mg/kg BW,20 to 400 ng/mL
same,blood level range that could be achieved in humans,dosage range of 4-8 mg/kg BW,80 to 160 ng/mL
